Data reported in US9346798B2, “Dihydrobenzoxazine and tetrahydroquinoxaline sodium channel inhibitors” (AMGEN INC., priority 2012, dated 2016).

Experiments:
Type in all cases: cell-based
Nav 1.7 [1] = target: T1, Nav 1.7 (Homo sapiens (Human), UniProt Q15858); assay: Nav 1.7 in vitro assay, IonWorks Quattro (IWQ) population patch-clamp; settings: HEK 293 cells stably transfected with Nav 1.7; 26th pulse to -20 mV
Nav 1.7 [2] = target: T1, Nav 1.7; assay: Nav 1.7 in vitro PX assay, PatchXpress whole cell voltage clamp; settings: HEK 293 cells stably transfected with human Nav1.7; for inhibition at 4.9 µM: HEK293, values marked *, read-out: Nav 1.7 PX percent inhibition at 4.9 μM; for IC50: partially inactivated state (20 to 50% inactivation)
How it was run: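 Partially inactivated channels (20–50% inactivation at holding potential) were probed on automated patch clamp in stably transfected HEK293 cells, stepping to −10 mV for 20 msec every 10 s (0.1 Hz).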

Nav 1.5 = Nav 1.5 (Homo sapiens (Human), UniProt Q14524); assay: Nav 1.5 in vitro assay, IonWorks Quattro (IWQ) population patch-clamp; settings: HEK 293 cells stably transfected with Nav 1.5; 26th pulse to -20 mV
Chain of Nav 1.5 (Q14524 whole entry): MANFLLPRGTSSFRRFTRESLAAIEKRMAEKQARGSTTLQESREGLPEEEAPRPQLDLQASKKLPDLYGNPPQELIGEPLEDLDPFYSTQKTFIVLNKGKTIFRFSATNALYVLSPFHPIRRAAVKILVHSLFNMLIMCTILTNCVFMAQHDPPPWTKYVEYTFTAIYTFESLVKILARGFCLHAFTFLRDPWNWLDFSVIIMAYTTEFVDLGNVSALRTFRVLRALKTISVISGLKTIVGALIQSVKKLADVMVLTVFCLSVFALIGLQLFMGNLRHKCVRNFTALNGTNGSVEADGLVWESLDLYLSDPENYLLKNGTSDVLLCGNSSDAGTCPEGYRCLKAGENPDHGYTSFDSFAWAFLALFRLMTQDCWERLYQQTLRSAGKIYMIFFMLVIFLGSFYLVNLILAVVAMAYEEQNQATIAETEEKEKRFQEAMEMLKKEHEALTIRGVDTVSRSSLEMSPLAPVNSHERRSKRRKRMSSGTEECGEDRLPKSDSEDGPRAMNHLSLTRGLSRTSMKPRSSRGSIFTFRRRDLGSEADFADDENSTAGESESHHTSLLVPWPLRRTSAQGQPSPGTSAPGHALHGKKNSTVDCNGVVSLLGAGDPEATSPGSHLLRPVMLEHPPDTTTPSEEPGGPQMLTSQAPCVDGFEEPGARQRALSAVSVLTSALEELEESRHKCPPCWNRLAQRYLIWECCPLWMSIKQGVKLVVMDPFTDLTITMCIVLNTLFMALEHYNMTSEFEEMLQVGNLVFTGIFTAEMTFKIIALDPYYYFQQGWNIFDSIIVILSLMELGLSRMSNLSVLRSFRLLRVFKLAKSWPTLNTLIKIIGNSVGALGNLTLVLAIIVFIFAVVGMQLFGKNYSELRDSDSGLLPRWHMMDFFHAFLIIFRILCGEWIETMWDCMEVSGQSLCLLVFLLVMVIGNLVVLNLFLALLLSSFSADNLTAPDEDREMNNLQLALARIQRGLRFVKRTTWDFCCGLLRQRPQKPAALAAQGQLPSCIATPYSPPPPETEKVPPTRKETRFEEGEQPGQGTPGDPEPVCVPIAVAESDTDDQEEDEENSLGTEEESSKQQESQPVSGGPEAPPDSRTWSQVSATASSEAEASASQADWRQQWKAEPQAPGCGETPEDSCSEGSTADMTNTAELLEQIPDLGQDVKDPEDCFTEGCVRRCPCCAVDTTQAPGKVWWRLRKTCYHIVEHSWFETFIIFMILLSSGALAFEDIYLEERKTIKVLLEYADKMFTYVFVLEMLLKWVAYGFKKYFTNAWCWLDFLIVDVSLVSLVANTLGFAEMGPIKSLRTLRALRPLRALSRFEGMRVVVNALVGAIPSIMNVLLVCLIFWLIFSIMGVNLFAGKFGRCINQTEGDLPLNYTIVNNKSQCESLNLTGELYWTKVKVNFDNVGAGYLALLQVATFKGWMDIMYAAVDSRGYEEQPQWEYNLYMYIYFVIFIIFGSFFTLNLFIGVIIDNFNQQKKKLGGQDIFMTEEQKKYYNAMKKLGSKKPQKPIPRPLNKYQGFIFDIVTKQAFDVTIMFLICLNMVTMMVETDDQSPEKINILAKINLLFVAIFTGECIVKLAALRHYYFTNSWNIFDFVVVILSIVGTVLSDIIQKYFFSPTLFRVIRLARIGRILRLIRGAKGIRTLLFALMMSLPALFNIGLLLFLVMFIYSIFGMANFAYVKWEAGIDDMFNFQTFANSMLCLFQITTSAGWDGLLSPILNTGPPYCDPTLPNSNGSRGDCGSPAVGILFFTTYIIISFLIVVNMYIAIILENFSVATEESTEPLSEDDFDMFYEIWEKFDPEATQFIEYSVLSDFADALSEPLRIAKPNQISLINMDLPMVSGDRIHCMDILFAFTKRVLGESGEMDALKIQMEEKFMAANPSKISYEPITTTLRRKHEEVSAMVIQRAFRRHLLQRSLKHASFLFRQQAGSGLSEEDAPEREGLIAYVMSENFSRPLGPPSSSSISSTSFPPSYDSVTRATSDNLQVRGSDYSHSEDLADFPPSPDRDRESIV

T1 sequence (Q15858 whole entry): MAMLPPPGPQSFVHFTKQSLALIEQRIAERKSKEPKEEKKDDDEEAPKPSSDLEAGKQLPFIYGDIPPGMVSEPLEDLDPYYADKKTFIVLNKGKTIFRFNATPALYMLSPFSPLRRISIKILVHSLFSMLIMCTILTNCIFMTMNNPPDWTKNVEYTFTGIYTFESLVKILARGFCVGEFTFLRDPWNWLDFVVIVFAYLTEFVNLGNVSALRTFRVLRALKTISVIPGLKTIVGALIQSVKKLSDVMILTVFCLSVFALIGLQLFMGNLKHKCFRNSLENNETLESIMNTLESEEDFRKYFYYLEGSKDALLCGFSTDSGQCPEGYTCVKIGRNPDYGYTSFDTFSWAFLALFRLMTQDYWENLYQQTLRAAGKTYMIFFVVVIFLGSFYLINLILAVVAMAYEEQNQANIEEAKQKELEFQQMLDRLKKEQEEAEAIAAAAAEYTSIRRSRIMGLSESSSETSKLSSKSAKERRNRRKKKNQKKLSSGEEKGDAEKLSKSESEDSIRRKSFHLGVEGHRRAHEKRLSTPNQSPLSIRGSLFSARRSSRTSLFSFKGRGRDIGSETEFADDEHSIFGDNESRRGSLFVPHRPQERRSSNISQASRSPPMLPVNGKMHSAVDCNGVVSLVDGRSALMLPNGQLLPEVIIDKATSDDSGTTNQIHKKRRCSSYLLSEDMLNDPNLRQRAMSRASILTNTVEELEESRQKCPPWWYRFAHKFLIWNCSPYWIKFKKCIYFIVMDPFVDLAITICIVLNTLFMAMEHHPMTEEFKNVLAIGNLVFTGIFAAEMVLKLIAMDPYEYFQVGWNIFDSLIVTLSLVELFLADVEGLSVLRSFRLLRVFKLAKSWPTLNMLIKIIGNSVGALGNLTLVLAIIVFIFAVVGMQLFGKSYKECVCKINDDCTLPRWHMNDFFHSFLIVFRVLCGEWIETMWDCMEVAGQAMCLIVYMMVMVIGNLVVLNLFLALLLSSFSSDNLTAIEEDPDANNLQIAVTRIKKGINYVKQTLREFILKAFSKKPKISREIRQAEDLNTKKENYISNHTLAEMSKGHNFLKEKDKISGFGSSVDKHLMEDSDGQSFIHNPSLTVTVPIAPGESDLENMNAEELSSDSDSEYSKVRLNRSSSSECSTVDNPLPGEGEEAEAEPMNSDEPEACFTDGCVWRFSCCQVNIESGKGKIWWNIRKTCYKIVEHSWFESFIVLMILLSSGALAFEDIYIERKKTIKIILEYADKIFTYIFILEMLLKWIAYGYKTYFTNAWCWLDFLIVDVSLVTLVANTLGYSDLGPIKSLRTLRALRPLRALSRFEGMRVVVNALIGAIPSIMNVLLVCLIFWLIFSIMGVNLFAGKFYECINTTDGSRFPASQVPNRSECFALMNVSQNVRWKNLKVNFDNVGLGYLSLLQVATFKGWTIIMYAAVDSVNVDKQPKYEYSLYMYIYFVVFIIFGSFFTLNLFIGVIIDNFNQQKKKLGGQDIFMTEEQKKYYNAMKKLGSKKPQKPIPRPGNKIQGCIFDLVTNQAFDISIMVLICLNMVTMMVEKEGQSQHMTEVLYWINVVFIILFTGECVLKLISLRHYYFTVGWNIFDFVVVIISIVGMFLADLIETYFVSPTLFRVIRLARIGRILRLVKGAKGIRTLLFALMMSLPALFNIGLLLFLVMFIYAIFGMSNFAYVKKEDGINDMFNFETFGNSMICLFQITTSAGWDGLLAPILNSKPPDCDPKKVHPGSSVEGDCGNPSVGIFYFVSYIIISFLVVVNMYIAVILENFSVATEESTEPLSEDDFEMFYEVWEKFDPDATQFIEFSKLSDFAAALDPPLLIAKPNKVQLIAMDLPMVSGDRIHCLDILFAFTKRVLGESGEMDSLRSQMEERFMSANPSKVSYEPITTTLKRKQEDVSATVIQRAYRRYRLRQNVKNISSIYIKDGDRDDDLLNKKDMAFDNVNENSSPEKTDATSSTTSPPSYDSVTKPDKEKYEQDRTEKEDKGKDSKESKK

Structure (SMILES)	IC50 (Nav 1.7 [1]) [µM]	inhibition at 4.9 µM (Nav 1.7 [2]) [%]	IC50 (Nav 1.5) [µM]	IC50 (Nav 1.7 [2]) [µM]
O=S(=O)(Nc1nccs1)c1ccc2c(c1)OCCN2Cc1c[nH]c2cccnc12 [Example 222, 4-((1H-Pyrrolo[3,2-B]Pyridin-3-Yl)Methyl)-N-(Thiazol-2-Yl)-3,4-Dihydro-2H-Benzo[B][1,4]Oxazine-7-Sulfonamide]	3.43	33.8	> 10	–
N#Cc1ccc(N2CCOc3cc(S(=O)(=O)Nc4nccs4)ccc32)cc1 [Example 76, 4-(4-Cyanophenyl)-N-(Thiazol-2-Yl)-3,4-Dihydro-2H-Benzo[B][1,4]Oxazine-7-Sulfonamide 2,2,2-Trifluoroacetate]	0.871	–	6.03	9.23
O=S(=O)(Nc1nccs1)c1ccc2c(c1)OCCN2c1ccccc1C1=CCNCC1 [Example 59, 4-(2-(1,2,3,6-Tetrahydropyridin-4-Yl)Phenyl)-N-(Thiazol-2-Yl)-3,4-Dihydro-2H-Benzo[B][1,4]Oxazine-7-Sulfonamide 2,2,2-Trifluoroacetate]	0.015	–	5.57	0.252
O=S(=O)(Nc1ncns1)c1ccc2c(c1)OCCN2c1ccc(C(F)(F)F)cc1-c1cn[nH]c1 [Example 4, 4-(2-(1H-Pyrazol-4-Yl)-4-(Trifluoromethyl)Phenyl)-N-(1,2,4-Thiadiazol-5-Yl)-3,4-Dihydro-2H-Benzo[B][1,4]Oxazine-7-Sulfonamide]	0.00933	–	0.944	0.0576
O=S(=O)(Nc1nccs1)c1ccc2c(c1)OCCN2c1cccc2c1OC(F)(F)O2 [Example 129, 4-(2,2-Difluorobenzo[d][1,3]dioxol-4-yl)-N-(thiazol-2-yl)-3,4-dihydro-2H-benzo[b][1,4]oxazine-7-sulfonamide]	0.263	–	> 10	2.9
CN1CCN(c2cc(C(F)(F)F)ccc2N2CCOc3cc(S(=O)(=O)Nc4nccs4)ccc32)CC1 [Example 50, 4-(2-(4-Methylpiperazin-1-Yl)-4-(Trifluoromethyl)Phenyl)-N-(Thiazol-2-Yl)-3,4-Dihydro-2H-Benzo[B][1,4]Oxazine-7-Sulfonamide 2,2,2-Trifluoroacetate]	0.117	–	0.957	0.315
N#Cc1cc(C(F)(F)F)ccc1N1CCOc2cc(S(=O)(=O)Nc3ccncn3)ccc21 [Example 89, 4-(2-Cyano-4-(Trifluoromethyl)Phenyl)-N-(Pyrimidin-4-Yl)-3,4-Dihydro-2H-Benzo[B][1,4]Oxazine-7-Sulfonamide]	0.0285	–	1.14	0.464
O=S(=O)(Nc1nccs1)c1ccc2c(c1)OCCN2c1ccc(OC(F)(F)C(F)F)cc1 [Example 123, 4-(4-(1,1,2,2-Tetrafluoroethoxy)phenyl)-N-(thiazol-2-yl)-3,4-dihydro-2H-benzo[b][1,4]oxazine-7-sulfonamide]	1.07	–	5.81	4.72
O=S(=O)(Nc1ncns1)c1ccc2c(c1)NCCN2c1ccc(C(F)(F)F)cc1Cl [Example 18, 1-(2-Chloro-4-(Trifluoromethyl)Phenyl)-N-(1,2,4-Thiadiazol-5-Yl)-1,2,3,4-Tetrahydroquinoxaline-6-Sulfonamide]	1.04	–	> 10	0.946
Nc1cc(-c2cc(C(F)(F)F)ccc2N2CCOc3cc(S(=O)(=O)Nc4ncns4)ccc32)ccn1 [Example 29, 4-(2-(2-Aminopyridin-4-Yl)-4-(Trifluoromethyl)Phenyl)-N-(1,2,4-Thiadiazol-5-Yl)-3,4-Dihydro-2H-Benzo[B][1,4]Oxazine-7-Sulfonamide]	0.0095	–	0.634	0.079
COc1nc(C(F)(F)F)ccc1N1CCOc2cc(S(=O)(=O)Nc3nccs3)ccc21 [Example 214, 4-(2-Methoxy-6-(Trifluoromethyl)Pyridin-3-Yl)-N-(Thiazol-2-Yl)-3,4-Dihydro-2H-Benzo[B][1,4]Oxazine-7-Sulfonamide]	0.0685	–	> 10	0.8
[N-]=[N+]=Nc1ccc(N2CCOc3cc(S(=O)(=O)Nc4nccs4)ccc32)c(C2=CCNCC2)c1 [Example 65, 4-(4-Azido-2-(1,2,3,6-Tetrahydropyridin-4-Yl)Phenyl)-N-(Thiazol-2-Yl)-3,4-Dihydro-2H-Benzo[B][1,4]Oxazine-7-Sulfonamide Bis(2,2,2-Trifluoroacetate)]	0.024	–	5.28	0.0244
COCCNc1cc(C(F)(F)F)ccc1N1CCOc2cc(S(=O)(=O)Nc3ccncn3)ccc21 [Example 48, 4-(2-((2-Methoxyethyl)Amino)-4-(Trifluoromethyl)Phenyl)-N-(Pyrimidin-4-Yl)-3,4-Dihydro-2H-Benzo[B][1,4]Oxazine-7-Sulfonamide]	0.0285	–	> 10	0.719
O=S(=O)(Nc1cscn1)c1ccc2c(c1)OCCN2c1ccc(C(F)(F)F)cc1Br [Example 61, 4-(2-Bromo-4-(Trifluoromethyl)Phenyl)-N-(Thiazol-4-Yl)-3,4-Dihydro-2H-Benzo[B][1,4]Oxazine-7-Sulfonamide]	0.679	–	> 10	2.43
O=S(=O)(Nc1ncns1)c1ccc2c(c1)OCCN2c1ccc(C(F)(F)F)cc1-c1cccnc1 [Example 21, 4-(2-(Pyridin-3-Yl)-4-(Trifluoromethyl)Phenyl)-N-(1,2,4-Thiadiazol-5-Yl)-3,4-Dihydro-2H-Benzo[B][1,4]Oxazine-7-Sulfonamide]	0.0158	–	1.33	0.162
O=S(=O)(Nc1ncns1)c1ccc2c(c1)OCCN2c1cccc2ncccc12 [Example 33, 4-(Quinolin-5-Yl)-N-(1,2,4-Thiadiazol-5-Yl)-3,4-Dihydro-2H-Benzo[B][1,4]Oxazine-7-Sulfonamide]	0.141	–	> 10	1.19
O=S(=O)(Nc1ncns1)c1ccc2c(c1)OCCN2c1cccc2ccccc12 [Example 36, 4-(Naphthalen-1-Yl)-N-(1,2,4-Thiadiazol-5-Yl)-3,4-Dihydro-2H-Benzo[B][1,4]Oxazine-7-Sulfonamide]	0.0315	–	> 10	0.145
O=S(=O)(Nc1ccncn1)c1ccc2c(c1)OCCN2c1ncc(C(F)(F)F)cc1Cl [Example 99, 4-(3-Chloro-5-(Trifluoromethyl)Pyridin-2-Yl)-N-(Pyrimidin-4-Yl)-3,4-Dihydro-2H-Benzo[B][1,4]Oxazine-7-Sulfonamide]	0.327	–	> 10	4.97
N#Cc1cc(F)ccc1N1CCOc2cc(S(=O)(=O)Nc3nccs3)ccc21 [Example 177, 4-(2-cyano-4-fluorophenyl)-N-(thiazol-2-yl)-3,4-dihydro-2H-benzo[b][1,4]oxazine-7-sulfonamide]	0.178	–	> 10	1.49
N#Cc1ccc(N2CCOc3cc(S(=O)(=O)Nc4nccs4)ccc32)c(Cl)c1 [Example 191, 4-(2-Chloro-4-Cyanophenyl)-N-(Thiazol-2-Yl)-3,4-Dihydro-2H-Benzo[B][1,4]Oxazine-7-Sulfonamide]	0.14	–	> 10	0.976
N#Cc1cc(C(F)(F)F)ccc1N1CCOc2cc(S(=O)(=O)Nc3nccs3)cc(F)c21 [Example 218, 4-(2-Cyano-4-(Trifluoromethyl)Phenyl)-5-Fluoro-N-(Thiazol-2-Yl)-3,4-Dihydro-2H-Benzo[B][1,4]Oxazine-7-Sulfonamide]	0.193	–	0.385	1.99
Cc1cncc(C)c1N1CCOc2cc(S(=O)(=O)Nc3nccs3)ccc21 [Example 133, 4-(3,5-Dimethylpyridin-4-yl)-N-(thiazol-2-yl)-3,4-dihydro-2H-benzo[b][1,4]oxazine-7-sulfonamide]	1.59	20.2	> 10	–
Cc1c(F)cccc1N1CCOc2cc(S(=O)(=O)Nc3nccs3)ccc21 [Example 78, 4-(3-Fluoro-2-Methylphenyl)-N-(Thiazol-2-Yl)-3,4-Dihydro-2H-Benzo[B][1,4]Oxazine-7-Sulfonamide 2,2,2-Trifluoroacetate]	0.249	–	> 10	2.22
O=S(=O)(Nc1ncccn1)c1ccc2c(c1)OCCN2c1ccc(C(F)(F)F)cc1Cl [Example 16, 4-(2-Chloro-4-(Trifluoromethyl)Phenyl)-N-(Pyrimidin-2-Yl)-3,4-Dihydro-2H-Benzo[B][1,4]Oxazine-7-Sulfonamide]	1.86	–	> 10	11.9
O=S(=O)(Nc1nccs1)c1ccc2c(c1)OCCN2c1ccc(C(F)(F)F)cc1C(O)CO (stereo not drawn) [Example 204, 4-(2-(1,2-dihydroxyethyl)-4-(trifluoromethyl)phenyl)-N-(thiazol-2-yl)-3,4-dihydro-2H-benzo[b][1,4]oxazine-7-sulfonamide]	0.0475	–	0.637	0.343
O=S(=O)(Nc1nccs1)c1ccc2c(c1)OCCN2Cc1ccccc1 [Example 220, 4-Benzyl-N-(Thiazol-2-Yl)-3,4-Dihydro-2H-Benzo[B][1,4]Oxazine-7-Sulfonamide]	0.864	–	> 10	17.2
O=S(=O)(Nc1nccs1)c1ccc2c(c1)OCCN2c1ccc(C(F)(F)F)cc1-c1cncnc1 [Example 54, 4-(2-(Pyrimidin-5-Yl)-4-(Trifluoromethyl)Phenyl)-N-(Thiazol-2-Yl)-3,4-Dihydro-2H-Benzo[B][1,4]Oxazine-7-Sulfonamide 2,2,2-Trifluoroacetate]	0.0115	–	0.731	0.585
